Where two headings read alike, the source gives them in different places.
Key:
[1] = system: Fusarium oxysporum (IFO 31213 strain); assay type: in vivo, tomato plant (variety: “House Momotaro”)
Protocol: By using a tomato plant and a strain of Fusarium oxysporum, which is a typical pathogenic bacterium of tomato, an effect of D-psicose during infection in a stage of raising seedlings thereof was examined.
To be more specific, seeds of a tomato plant (variety: “House Momotaro”) were subjected to an immersion treatment by immersing them in a 0.01% (w/v) D-psicose solution or a 0.007% (w/v) probenazole solution for 15 minutes while stirring slowly, followed by air-drying on sterile gauze, and then used as treated seeds. In the medium culture for raising seedlings (pete:pearlite:vermiculite=2:1:1), 0.01% (w/v) D-psicose or 0.007% (w/v) probenazole was mixed, and the soil was placed in black polypot plant containers with a diameter of 9 cm, and then, 4 seeds of the above treated seeds were sown in each pot. The seeds (20 seeds in total) were sown in 5 pots for each test plot. After sowing, the pots were placed in a growth chamber at 23° C. and 5,000 Lux (12-hour day length), and raising of seedlings was initiated. At 1 month and 2 months after the initiation of raising of seedlings, a suspension of mycelium of Fusarium oxysporum (IFO 31213 strain) was inoculated around the roots, whereby infection with Fusarium oxysporum was caused. After the inoculation of Fusarium oxysporum, the temperature was raised to 30° C., and cultivation was continued. At about 4 months after sowing, a survey was carried out with regard to the survival rate of plants, the conditions of browning of vascular bundles and roots, the stem diameter and the like.

[2] = system: tomato (Home Momotaro), sunny lettuce (Red Wave), morning glory (Tairin Zaki Kongo); assay: Seed germination, short-time and continuous treatment (Experiment 2); assay type: in vivo; settings: continuous treatment with 1%
Protocol: In order to clarify an effect of a short-time treatment, 50 seeds of Salsola komarovii, tomato (Home Momotaro) and sunny lettuce (Red Wave), and 20 seeds of morning glory (Tairin Zaki Kongo) were immersed in any of deionized water, 1% D-psicose, 1% D-allose and 1% L-galactose for 24 hours (25° C., dark), respectively, then, they were lightly washed with deionized water. Then, the seeds were sown in a dish with a diameter of 9 cm having a filter paper placed therein, and germinated under the same condition by poring 5 to 10 ml of deionized water therein. Further, for the comparison, a continuous treatment with 1% D-psicose was carried out in accordance with the same procedure.

[3] = system: rice plant (variety: Nihonbare); assay: Growth of rice seedlings in hydroponic culture with D-psicose; assay type: in vivo
[4] = system: strawberry plant (variety: “smile ruby”); assay: Foliar spraying of sugar on potted strawberry, fruit harvest; assay type: in vivo; settings: 0.5% (w/v) sprayed three times weekly
Protocol: A strawberry plant (variety: “smile ruby”) was used in an experiment. The strawberry plants were planted in pots and from Feb. 13, 2004, while the cultivation was carried out in a glass house, water or a 0.5% (w/v) sugar solution was sprayed onto the whole plant on a three times weekly basis. As for the types of sugars, D-glucose and D-psicose were used and two pots were cultivated for each test plot. While the cultivation was continued, the number of fruits, the weight of fruits, the sugar content of fruits were measured with regard to the fruits that could be harvested by Mar. 25, 2004.

[5] = system: cherry tomato plant “mini carol”; assay: Hydroponic growth of cherry tomato with D-psicose 0.001-0.03%; assay type: in vivo; settings: for number of flower clusters compared with the control plot: control plot 2.0
Protocol: On Jun. 10, 2003, a cherry tomato plant “mini carol” was transplanted for permanent planting to a hydroponic apparatus, and from 7 days after the permanent planting, 4 treated plots (0%, 0.001%, 0.01% and 0.03%) were prepared by adding D-psicose to a nutrient culture solution. A survey was carried out with regard to the growth at […] after the treatment (July 22). […] The fresh weight was larger in the plot of 0.001%, and was smaller in the plot of 0.03% compared with the control plot. When the fresh weight was seen according to the parts, roots and leaves were larger in the plot of 0.001%.

Vitis vinifera L. = assay type: in vivo
Protocol: Matured branches of “V. vinifera L.” grown outdoors were collected on December 25 during the dormant stage and were prepared to have one bud, and then, each cutting base was immersed in a 0.01, 0.1 or 1% aqueous solution of D-psicose for 24 hours. On the following day December 26, the same procedure as in 1 was carried out. In a control plot, distilled water was used, and to the liquid for treatment, Approach BI was not added. The judgment of bud flush was carried out in accordance with the method in 1. The measurement of bud flush was carried out on about a weekly basis.
In the survey of the bud flush rate, 9 cuttings were used for each plot and the procedure was repeated twice and an average was obtained.

Fusarium oxysporum = assay: Table 12: plants with or without Fusarium oxysporum, seed and medium treated with D-psicose; assay type: in vivo
[6] = 0.5 mM, hydroponic culture for 10 days
[7] = Fusarium oxysporum added, D-psicose seed 0.01%, medium 0.01%
[8] = Fusarium oxysporum added, D-psicose seed 0.01%, medium non
[9] = Fusarium oxysporum added, D-psicose seed 0.10%, medium 0.10%
[10] = Fusarium oxysporum added, D-psicose seed 0.10%, medium non
[11] = Fusarium oxysporum without addition, D-psicose seed 0.10%, medium non

`O=C(CO)[C@H](O)[C@H](O)[C@H](O)CO` [D-psicose] was tested, and the “degree of chemical damage (yellow discoloration of leaves)” value ([1]; in vivo) was “smaller than that of the case of probenazole”, the “Vascular bundle browning ratio” value ([1]; seed immersion (0.01% D-psicose or 0.007% probenazole), no seed treatment 25%) was 5% and the Stem diameter ([1]; seed immersion treatment) was “increased”. For the same compound, the “inhibitory effect on Fusarium wilt” value ([1]; seed immersion with D-psicose solution) was “equal to or more than that of probenazole”, the germination [2] was “inhibited” and the Number of roots ([3]; 0.5 mM) was “no change”. For the same compound, the Number of roots ([3]; 0.5 mM D-psicose, Day 10 after germination, non-treated 7.00 ± 0.6) was 7.00 ± 0.6 roots, the Seed root length ([3]; 0.5 mM D-psicose, Day 10 after germination, non-treated 7.58 ± 0.23) was 5.15 ± 0.26 cm and the Plant length ([3]; 0.5 mM D-psicose, Day 10 after germination, non-treated 12.08 ± 0.21) was 5.29 ± 0.58 cm. For the same compound, the “root length inhibited by” value [3, 6] was 67%, the “seedling length inhibited by” value [3, 6] was 43% and the “Plant length, percentage of the relative value to untreated plot” value ([3]; 7 days (1 week) after transplantation to pot, after 0.5 mM D-psicose) was 52.4%. It also gave a Plant length ([3]; 7 days after transplantation to pot, after 0.5 mM D-psicose treatment, untreated 31.4 ± 0.5) of 16.5 ± 2.4 cm, a Plant length ([3]; 14 days after transplantation to pot, after 0.5 mM D-psicose treatment, untreated 44.7 ± 0.1) of 35.3 ± 2.1 cm and an inhibition at 100 µM ([3]; Oryza sativa, 0.1 mM) of 30%. For the same compound, the “time to recover to the size equal to that of the untreated plot after transplanting to soil” value ([3]; after 0.5 mM treatment, raised without D-psicose) was “about 3 weeks”, the “growth relative to the untreated plot” value ([3]; until 0.05 mM (0.005 to 0.05 mM)) was > 98% and the “average weight of fruits” value ([4]; increased from 13.5 g) was 16.6 g. The “number of fruits that could be harvested during the cultivation period” value ([4]; increased from 25) was 38, the “total weight of fruits that could be harvested” value ([4]; increased from 337.8 g) was 630.3 g and the “fresh weight compared with the control plot” value ([5]; 0.001%) was “larger”. For the same compound, the “maximum root length compared with the control plot” value ([5]; 0.001%) was “slightly longer”, the “number of leaves compared with the control plot” value ([5]; 0.001%) was “slightly larger” and the “stem length compared with the control plot” value ([5]; 0.001% in nutrient culture solution) was “slightly longer”. The “number of flower clusters compared with the control plot” value ([5]; 0.001%) was “slightly larger”, the “maximum root length compared with the control plot” value ([5]; 0.01%) was “slightly shorter” and the “stem diameter compared with the control plot” value ([5]; 0.01%) was “slightly larger”. For the same compound, the “stem length compared with the control plot” value ([5]; 0.01%) was “slightly longer”, the “fresh weight compared with the control plot” value ([5]; 0.03%) was “smaller” and the “maximum root length compared with the control plot” value ([5]; 0.03%) was “slightly shorter”. The “number of leaves compared with the control plot” value ([5]; 0.03%) was “slightly smaller”, the “stem diameter compared with the control plot” value ([5]; 0.03%) was “slightly smaller” and the “stem length compared with the control plot” value ([5]; 0.03%) was “slightly shorter”. For the same compound, the “number of flower clusters compared with the control plot” value ([5]; 0.03%) was “slightly smaller”, the bud flush rate (Vitis vinifera L.; 0.01%) was “a similar pattern to that of the control plot” and the bud flush rate (Vitis vinifera L.; 0.1%, throughout the whole period) was “the lowest value”. For the same compound, the bud flush rate (Vitis vinifera L.; 1%, after the mid-February) was “the highest value”, the “bud flush rate compared with control plot” value (Vitis vinifera L.; all plots (0.01, 0.1, 1%), until early February) was “lower” and the “state of green branches of grapes in summer after treatment” value (Vitis vinifera L.; in vivo) was “withered and dead”. The Aerial part weight (Fusarium oxysporum; [7]) was 3.1 g, the Leaf browning ratio (Fusarium oxysporum; [7]) was 5% and the Plant length (Fusarium oxysporum; [7]) was 17.6 cm. The Survival rate (Fusarium oxysporum; [7]) was 50%, the “Vascular bundle browning ratio” value (Fusarium oxysporum; [7]) was 45% and the Aerial part weight (Fusarium oxysporum; [8]) was 1.9 g. The Leaf browning ratio (Fusarium oxysporum; [8]) was 100%, the Plant length (Fusarium oxysporum; [8]) was 14.5 cm and the Survival rate (Fusarium oxysporum; [8]) was 28%. For the same compound, the “Vascular bundle browning ratio” value (Fusarium oxysporum; [8]) was 39%, the Aerial part weight (Fusarium oxysporum; [9]) was 3.3 g and the Leaf browning ratio (Fusarium oxysporum; [9]) was 13%. The Plant length (Fusarium oxysporum; [9]) was 13.8 cm, the Survival rate (Fusarium oxysporum; [9]) was 25% and the “Vascular bundle browning ratio” value (Fusarium oxysporum; [9]) was 38%. It also gave an Aerial part weight (Fusarium oxysporum; [10]) of 2.2 g, a Leaf browning ratio (Fusarium oxysporum; [10]) of 100% and a Plant length (Fusarium oxysporum; [10]) of 13.9 cm. For the same compound, the Survival rate (Fusarium oxysporum; [10]) was 16%, the “Vascular bundle browning ratio” value (Fusarium oxysporum; [10]) was 60% and the Aerial part weight (Fusarium oxysporum; [11]) was 2.2 g. It also gave a Leaf browning ratio (Fusarium oxysporum; [11]) of 0%, a Plant length (Fusarium oxysporum; [11]) of 17.8 cm and a Survival rate (Fusarium oxysporum; [11]) of 100%. For the same compound, the “Vascular bundle browning ratio” value (Fusarium oxysporum; [11]) was 0%.
